We go through 1 compound from PubChem BioAssay (NCI).

The structures appear in SMILES notation.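 All cell lines were grown in 96-well plates and treated with compound for 48 hours. The concentration for 50% growth inhibition is given as GI50. Definition used: TGI = concentration required for complete inhibition of growth.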

Assay in all cases: NCI tumour cell line growth inhibition, 48 h
Test [1] deals with UO-31 renal.
In test [2] the test system is SN12C renal.
Test [3] relates to NCI/ADR-RES ovarian.
For test [4], the system named is UACC-62 melanoma.
Test [5] has as its system MDA-MB-435.
Test [6] concerns HOP-62 NSCLC.
Test [7] has as its system A498 renal.
Test [8] deals with HT29 colon.
Test [9] concerns U251 CNS.
The test system of test [10] is HS 578T breast.

Regarding `O=C(Nc1ccc(OCc2nnc(-c3ccc(Cl)cc3)o2)c(F)c1)Nc1ccc(Cl)c(C(F)(F)F)c1`, the GI50 was 1.52 µM in [1]; 2.02 µM in test [2]; 2.59 µM in test [3]; 1.54 µM in test [4]; 2.62 µM in test [5]; 0.793 µM in test [6]. The GI50 is 1.18 µM in [7], 2.29 µM in test [8], 1.88 µM in test [9] and 2.13 µM in test [10]. For the same compound, the TGI in test [1] was found to be 4.1 µM; in test [2], 7.91 µM; in [3], 11.5 µM; in [4] it was 4.21 µM; in test [5], 11.6 µM; in test [6], 5.84 µM. For the same compound, the TGI amounted to 7.43 µM in test [7], 5.69 µM in test [8], 5.03 µM in test [9] and 7.96 µM in test [10].
